{"source": "patent US20210346359A1", "about": "“Use of CFTR Modulators For Treating Cerebrovascular Conditions” (Qanatpharma AG, priority 2018, published 2021)", "key": {"[1]": {"system": "mice with subarachnoid hemorrhage", "assay": "Modified Garcia neurological score in subarachnoid hemorrhage mice", "format": "in vivo, mouse", "settings": "SAH mice, 2 days post-SAH, maximum score 18, 3 mg/kg daily for 2 days", "description": "Neurological Function Assessment: Neurological function was assessed utilizing the modified Garcia score, as previously described (6). The neurological assessment consists of 6 domains: spontaneous activity, spontaneous movement of all 4 limbs, forepaw outstretching, climbing, body proprioception and response to vibrissae touch. Two blinded observers conducted the neurological assessment 2 days after SAH. The maximum score is 18, indicative of normal neurological function."}, "CFTR": {"target": "CFTR (Mus musculus, UniProt P26361)", "sequence (P26361 whole entry)": "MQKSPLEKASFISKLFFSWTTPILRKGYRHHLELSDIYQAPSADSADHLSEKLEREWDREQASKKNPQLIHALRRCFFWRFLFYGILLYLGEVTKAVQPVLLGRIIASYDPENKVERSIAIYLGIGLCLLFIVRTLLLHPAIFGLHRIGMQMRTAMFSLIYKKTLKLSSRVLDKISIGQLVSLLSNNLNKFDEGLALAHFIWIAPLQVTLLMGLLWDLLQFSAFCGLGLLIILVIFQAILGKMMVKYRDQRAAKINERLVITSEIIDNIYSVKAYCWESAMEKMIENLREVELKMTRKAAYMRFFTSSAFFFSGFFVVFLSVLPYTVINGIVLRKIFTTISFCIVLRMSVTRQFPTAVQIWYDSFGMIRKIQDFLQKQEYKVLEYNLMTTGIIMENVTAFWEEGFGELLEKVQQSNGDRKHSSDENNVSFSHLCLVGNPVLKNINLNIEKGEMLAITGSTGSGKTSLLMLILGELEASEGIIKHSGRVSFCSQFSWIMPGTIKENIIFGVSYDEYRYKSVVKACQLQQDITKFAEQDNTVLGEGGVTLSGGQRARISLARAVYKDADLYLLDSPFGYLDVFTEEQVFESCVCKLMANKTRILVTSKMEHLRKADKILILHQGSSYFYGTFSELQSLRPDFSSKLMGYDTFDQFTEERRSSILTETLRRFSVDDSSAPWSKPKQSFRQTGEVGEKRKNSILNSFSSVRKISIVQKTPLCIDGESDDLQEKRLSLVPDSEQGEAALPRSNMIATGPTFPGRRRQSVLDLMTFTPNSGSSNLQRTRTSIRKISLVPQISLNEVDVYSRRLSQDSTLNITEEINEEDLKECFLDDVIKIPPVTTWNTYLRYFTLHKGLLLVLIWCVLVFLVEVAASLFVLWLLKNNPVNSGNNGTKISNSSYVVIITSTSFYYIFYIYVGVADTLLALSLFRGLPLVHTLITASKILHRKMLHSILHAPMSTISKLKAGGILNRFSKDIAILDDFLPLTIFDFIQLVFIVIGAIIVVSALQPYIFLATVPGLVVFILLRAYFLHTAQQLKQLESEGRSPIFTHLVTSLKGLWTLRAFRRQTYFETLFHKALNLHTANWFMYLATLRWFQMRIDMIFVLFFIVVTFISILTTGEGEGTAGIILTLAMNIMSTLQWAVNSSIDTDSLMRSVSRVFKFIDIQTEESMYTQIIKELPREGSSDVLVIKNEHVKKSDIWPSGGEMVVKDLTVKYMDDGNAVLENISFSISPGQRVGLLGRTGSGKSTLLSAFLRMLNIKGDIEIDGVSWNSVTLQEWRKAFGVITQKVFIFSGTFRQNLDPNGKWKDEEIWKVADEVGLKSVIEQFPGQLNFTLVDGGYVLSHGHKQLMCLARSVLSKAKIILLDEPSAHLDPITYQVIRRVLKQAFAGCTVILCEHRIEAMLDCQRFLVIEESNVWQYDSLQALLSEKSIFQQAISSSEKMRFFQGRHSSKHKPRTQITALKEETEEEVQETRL", "assay": "Forskolin-stimulated iodide efflux in vascular smooth muscle cells", "format": "cell-based", "design": "mesenteric artery segments were isolated, cut into small pieces and digested with trypsin, collagenase and elastase; endogenous in cells; host or cells: primary mesenteric artery vascular smooth muscle cells", "settings": "primary vascular smooth muscle cells; 48 h TNF 10 ng/ml + C18 6 μmol/L for last 24 h", "description": "Procedures for isolating and culturing mesenteric artery smooth muscle cells were carried out as described in (10). Briefly, mesenteric artery segments were isolated, cut into small pieces and digested with trypsin, collagenase and elastase. The resulting cell suspension was washed several times in phosphate-buffered saline and plated in Dulbecco's Modified Eagle Medium (DMEM) culture media containing 10% fetal bovine serum and 1% penicillin-streptomycin. Cell cultures were maintained at 37° C. with 5% CO2 and split at 106 cells seeding density. […]\nIodide efflux measurements were conducted as previously described (18). […] Supernatant iodide levels were quantified with an iodide-selective electrode (Lazar Research Laboratories; Los Angeles, USA), calibrated with Nal standards. Pre-stimulation iodide levels were determined and then cells were stimulated with a cocktail containing 10 μmol/L forskolin, 1 mmol/L isobutylmethylxanthine and 100 μmol/L cpt-cAMP (in 1% v/v DMSO). […] Supernatant iodide levels were determined over seven consecutive 1-minute intervals post-stimulation. […] The maximum efflux rate, therefore, was calculated using the measured efflux level between 60-120 seconds post-stimulation (18)."}, "mice with heart failure": {"system": "mice with heart failure", "assay": "MRI (FAIR) cerebral blood flow in heart failure mice", "format": "in vivo, mouse", "settings": "HF mice, forebrain cortical, 3 mg/kg daily for 2 days", "from_the_text": "As described previously (10-12), we utilized a flow-sensitive alternating inversion recovery (FAIR) magnetic resonance imaging (MRI) technique (13) to evaluate cerebral blood flow (CBF). During imaging, mice were immobilized with 1.8% isoflurane delivered through a nose cone. To maintain body temperature, the MRI is equipped with embedded tubes that convect water from an external heater-pump. Respiration was monitored using a pneumatic pillow (SA Instruments, Stonybrook, USA); isoflurane levels were adjusted to maintain respiration at approximately 50 breaths/minute.\nFAIR images were obtained using a 7 Tesla micro-MRI system (BioSpec 70/30 USR, Bruker BioSpin, Ettlingen, Germany), including the B-GA12 gradient insert, 72 mm inner diameter linear volume resonator for RF transmission, and anteriorly placed head coil for RF reception. […] FAIR images were evaluated by manual prescription (MIPAV, NIH, Bethesda, MD; http://mipav.cit.nih.gov) of sub-hemispheric regions-of-interest (ROIs), termed ‘global’, and local ROIs corresponding to cortical and sub-cortical parenchyma in forebrain sections; cortical and paraventricular parenchyma in middle sections; and cortical and midbrain parenchyma in hindbrain sections. […]"}}, "note": "“Also recorded” adds a separate entry of the source.", "data": [{"smiles": "O=C(Nc1ncc(C(c2ccccc2Cl)N2CCC(O)C2)s1)C1(c2ccc3c(c2)OCO3)CC1", "note": "(stereo not drawn) [C18, 1-(benzo[d][1,3]dioxol-5-yl)-N-(5-((2-chlorophenyl)(3-hydroxypyrrolidin-1-yl)methyl)thiazol-2-yl)cyclopropanecarboxamide]", "values": [{"measurement": "Modified Garcia score (neurological function)", "setting": "[1]", "result": "comparable to sham-operated mice; also recorded: restores the neurological score to the sham level"}, {"measurement": "forskolin-stimulated iodide efflux after TNF", "setting": "CFTR", "result": "fully restores; also recorded: normalization"}, {"measurement": "cerebral blood flow / cerebral perfusion", "setting": "mice with heart failure", "result": "restores; also recorded: significantly improves"}]}]}
